# Results reported in ChEMBL document CHEMBL4177616, “Potent anti-melanogenic activity and favorable toxicity profile of selected 4-phenyl hydroxycoumarins in the zebrafish model and the computational molecular modeling studies” (Bioorg Med Chem, 2017).
# Columns and labels:
# [1] = tested on: Danio rerio; test: Toxicity in wild type zebrafish embryos assessed as yolk edema at 50 ug/ml treated for 96 hrs post fertilization starting from 6 hrs post fertilization by inverted microscopic analysis relative to control; assay type: organism-based; details: in vivo
# [2] = target: T1, Tyrosinase (Danio rerio) (UniProt A0A8M1PAD4); test: Inhibition of zebrafish embryo tyrosinase assessed as residual activity at 50 ug/ml after 48 hrs relative to control
# T1 sequence (whole entry): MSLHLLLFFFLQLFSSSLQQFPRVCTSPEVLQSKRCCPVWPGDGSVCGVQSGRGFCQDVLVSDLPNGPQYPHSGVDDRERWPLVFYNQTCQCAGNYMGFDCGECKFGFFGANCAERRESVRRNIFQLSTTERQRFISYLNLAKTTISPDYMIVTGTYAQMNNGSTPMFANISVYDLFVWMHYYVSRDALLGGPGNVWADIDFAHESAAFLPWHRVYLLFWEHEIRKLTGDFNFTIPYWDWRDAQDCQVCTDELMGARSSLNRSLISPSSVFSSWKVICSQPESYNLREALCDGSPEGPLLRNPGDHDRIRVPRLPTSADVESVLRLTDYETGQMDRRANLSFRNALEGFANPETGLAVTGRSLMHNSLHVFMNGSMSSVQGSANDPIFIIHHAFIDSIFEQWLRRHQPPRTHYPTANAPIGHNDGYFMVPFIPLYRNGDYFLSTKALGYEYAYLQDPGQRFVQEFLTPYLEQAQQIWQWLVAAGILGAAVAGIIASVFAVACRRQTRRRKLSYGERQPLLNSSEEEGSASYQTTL
# [3] = species on record: Danio rerio; test: Toxicity in wild type zebrafish embryos assessed as blood circulation at 15 ug/ml treated for 96 hrs post fertilization starting from 6 hrs post fertilization by inverted microscopic analysis relative to control; assay type: organism-based; details: in vivo
# [4] = target: T2, Tyrosinase (Danio rerio, UniProt A0A8M1PAD4); test: Inhibition of zebrafish embryo tyrosinase assessed as melanin production after 48 hrs
# T2 sequence (A0A8M1PAD4 whole entry): T1 sequence (whole entry)
# [5] = in vivo; details: zebrafish
# Description: Toxicity in wild type zebrafish embryos assessed as dead embryo at 12.5 ug/ml treated for 96 hrs post fertilization starting from 6 hrs post fertilization by inverted microscopic analysis relative to control
# [6] = in vivo; details: zebrafish; remark: listed apart in the source
# Description: Toxicity in wild type zebrafish embryos assessed as dead embryo at 6.25 ug/ml treated for 96 hrs post fertilization starting from 6 hrs post fertilization by inverted microscopic analysis relative to control
# [7] = species on record: Danio rerio; test: Toxicity in wild type zebrafish embryos assessed as heart beat at 2500 ug/ml treated for 96 hrs post fertilization starting from 6 hrs post fertilization by inverted microscopic analysis relative to control; assay type: organism-based; details: in vivo
# [8] = species on record: Danio rerio; test: Toxicity in wild type zebrafish embryos assessed as growth retardation at 100 ug/ml treated for 96 hrs post fertilization starting from 6 hrs post fertilization by inverted microscopic analysis relative to control; assay type: organism-based; details: in vivo
# [9] = species on record: Danio rerio; test: Toxicity in wild type zebrafish embryos assessed as eyes at 100 ug/ml treated for 96 hrs post fertilization starting from 6 hrs post fertilization by inverted microscopic analysis relative to control; assay type: organism-based; details: in vivo
# [10] = species on record: Danio rerio; test: Toxicity in wild type zebrafish embryos assessed as heart beat at 100 ug/ml treated for 96 hrs post fertilization starting from 6 hrs post fertilization by inverted microscopic analysis relative to control; assay type: organism-based; details: in vivo
# [11] = species on record: Danio rerio; test: Toxicity in wild type zebrafish embryos assessed as normal embryo at 500 ug/ml treated for 96 hrs post fertilization starting from 6 hrs post fertilization by inverted microscopic analysis relative to control; assay type: organism-based; details: in vivo
# [12] = species on record: Danio rerio; test: Toxicity in wild type zebrafish embryos assessed as notochord at 1000 ug/ml treated for 96 hrs post fertilization starting from 6 hrs post fertilization by inverted microscopic analysis relative to control; assay type: organism-based; details: in vivo
# [13] = species on record: Danio rerio; test: Toxicity in wild type zebrafish embryos assessed as growth retardation at 2500 ug/ml treated for 96 hrs post fertilization starting from 6 hrs post fertilization by inverted microscopic analysis relative to control; assay type: organism-based; details: in vivo
# [14] = Toxicity in wild type zebrafish embryos assessed as dead embryo at 1000 ug/ml treated for 96 hrs post fertilization starting from 6 hrs post fertilization by inverted microscopic analysis relative to control; assay type: organism-based, Danio rerio; details: in vivo, read-out: Activity
# [15] = Toxicity in wild type zebrafish embryos assessed as dead embryo at 500 ug/ml treated for 96 hrs post fertilization starting from 6 hrs post fertilization by inverted microscopic analysis relative to control; assay type: organism-based, Danio rerio; details: in vivo, read-out: Activity
# [16] = species on record: Danio rerio; test: Toxicity in wild type zebrafish embryos assessed as teratogenic embryo at 100 ug/ml treated for 96 hrs post fertilization starting from 6 hrs post fertilization by inverted microscopic analysis relative to control; assay type: organism-based; details: in vivo
# [17] = species on record: Danio rerio; test: Toxicity in wild type zebrafish embryos assessed as teratogenic embryo at 1000 ug/ml treated for 96 hrs post fertilization starting from 6 hrs post fertilization by inverted microscopic analysis relative to control; assay type: organism-based; details: in vivo
# [18] = species on record: Danio rerio; test: Toxicity in wild type zebrafish embryos assessed as normal embryo at 2500 ug/ml treated for 96 hrs post fertilization starting from 6 hrs post fertilization by inverted microscopic analysis relative to control; assay type: organism-based; details: in vivo
# [19] = species on record: Danio rerio; test: Toxicity in wild type zebrafish embryos assessed as otoliths at 1000 ug/ml treated for 96 hrs post fertilization starting from 6 hrs post fertilization by inverted microscopic analysis relative to control; assay type: organism-based; details: in vivo
# [20] = tested on: Danio rerio; test: Toxicity in wild type zebrafish embryos assessed as yolk edema at 100 ug/ml treated for 96 hrs post fertilization starting from 6 hrs post fertilization by inverted microscopic analysis relative to control; assay type: organism-based; details: in vivo
# [21] = species on record: Danio rerio; test: Toxicity in wild type zebrafish embryos assessed as head malformation at 2500 ug/ml treated for 96 hrs post fertilization starting from 6 hrs post fertilization by inverted microscopic analysis relative to control; assay type: organism-based; details: in vivo
# [22] = species on record: Danio rerio; test: Toxicity in wild type zebrafish embryos assessed as head malformation at 500 ug/ml treated for 96 hrs post fertilization starting from 6 hrs post fertilization by inverted microscopic analysis relative to control; assay type: organism-based; details: in vivo
# [23] = tested on: Danio rerio; test: Toxicity in wild type zebrafish embryos assessed as yolk edema at 2500 ug/ml treated for 96 hrs post fertilization starting from 6 hrs post fertilization by inverted microscopic analysis relative to control; assay type: organism-based; details: in vivo
# [24] = Toxicity in wild type zebrafish embryos assessed as dead embryo at 2500 ug/ml treated for 96 hrs post fertilization starting from 6 hrs post fertilization by inverted microscopic analysis relative to control; assay type: organism-based, Danio rerio; details: in vivo, read-out: Activity
# [25] = species on record: Danio rerio; test: Toxicity in wild type zebrafish embryos assessed as blood circulation at 500 ug/ml treated for 96 hrs post fertilization starting from 6 hrs post fertilization by inverted microscopic analysis relative to control; assay type: organism-based; details: in vivo
# [26] = species on record: Danio rerio; test: Toxicity in wild type zebrafish embryos assessed as unhatched embryo at 2500 ug/ml treated for 96 hrs post fertilization starting from 6 hrs post fertilization by inverted microscopic analysis relative to control; assay type: organism-based; details: in vivo
# [27] = Toxicity in wild type zebrafish embryos assessed as dead embryo at 100 ug/ml treated for 96 hrs post fertilization starting from 6 hrs post fertilization by inverted microscopic analysis relative to control; assay type: organism-based, Danio rerio; details: in vivo, read-out: Activity
# [28] = tested on: Danio rerio; test: Toxicity in wild type zebrafish embryos assessed as yolk edema at 2000 ug/ml treated for 96 hrs post fertilization starting from 6 hrs post fertilization by inverted microscopic analysis relative to control; assay type: organism-based; details: in vivo
# [29] = species on record: Danio rerio; test: Toxicity in wild type zebrafish embryos assessed as normal embryo at 1000 ug/ml treated for 96 hrs post fertilization starting from 6 hrs post fertilization by inverted microscopic analysis relative to control; assay type: organism-based; details: in vivo
# [30] = species on record: Danio rerio; test: Toxicity in wild type zebrafish embryos assessed as scoliosis at 2.5 ug/ml treated for 96 hrs post fertilization starting from 6 hrs post fertilization by inverted microscopic analysis relative to control; assay type: organism-based; details: in vivo
# [31] = species on record: Danio rerio; test: Toxicity in wild type zebrafish embryos assessed as eyes at 1000 ug/ml treated for 96 hrs post fertilization starting from 6 hrs post fertilization by inverted microscopic analysis relative to control; assay type: organism-based; details: in vivo
# [32] = tested on: Danio rerio; test: Toxicity in wild type zebrafish embryos assessed as yolk edema at 500 ug/ml treated for 96 hrs post fertilization starting from 6 hrs post fertilization by inverted microscopic analysis relative to control; assay type: organism-based; details: in vivo
compound,measurement,setting,value
O=c1cc(-c2ccccc2)c2ccc(O)cc2o1,Activity,[1],0%
same,Activity,[2],48%
same,Activity,[3],0%
same,IC50,[4],103 µM
Oc1ccc(O)cc1 [HYDROQUINONE],mortality at 12.5 ug/ml,[5],66.7%
same,mortality at 6.25 ug/ml,[6],0%
O=c1cc(-c2ccccc2)c2c(O)cc(O)cc2o1,Activity,[1],0%
same,Activity,[3],0%
same,IC50,[4],41.3 µM
O=c1cc(CO)occ1O [KOJIC ACID],Activity,[7],100%
same,Activity,[8],0%
same,Activity,[9],0%
same,Activity,[10],0%
same,Activity,[11],13.33%
same,Activity,[12],0%
same,Activity,[13],35%
same,mortality at 1000 ug/ml,[14],0%
same,mortality at 500 ug/ml,[15],0%
same,Activity,[16],35%
same,Activity,[17],98.33%
same,Activity,[18],0%
same,Activity,[19],0%
same,Activity,[20],0%
same,Activity,[21],98.33%
same,Activity,[22],0%
same,Activity,[23],5%
same,mortality at 2500 ug/ml,[24],0%
same,Activity,[25],0%
same,Activity,[26],0%
same,mortality at 100 ug/ml,[27],0%
same,Activity,[28],0%
same,Activity,[29],1.67%
same,Activity,[30],Toxic
same,Activity,[31],0%
same,Activity,[32],0%
